From patent publication US8906946B2, “TRPM8 receptor antagonists” (Dompe' S.p.A., priority 2011, dated 2014)
Several values for one entry are separate records, joined by “and”; a condition that tells them apart may be missing. Equal entries are not always repeated.

Experiments:
[1] = molecular target: hERG (Homo sapiens, UniProt Q12809); experiment: hERG binding
[2] = Plasma Protein Binding, rat; format: in vitro ADME
[3] = molecular target: T1, human TRPM8 (Homo sapiens, UniProt Q7Z2W7); experiment: High-throughput FLIPR TETRA calcium fluorescence assay for TRPM8 antagonists in HEK293/hTRPM8 cells; format: cell-based; parameters: expressed in transfected cells; conditions: agonist Cooling Agent 10 at EC80, Ca2+ fluorescence
T1 sequence (Q7Z2W7 whole entry): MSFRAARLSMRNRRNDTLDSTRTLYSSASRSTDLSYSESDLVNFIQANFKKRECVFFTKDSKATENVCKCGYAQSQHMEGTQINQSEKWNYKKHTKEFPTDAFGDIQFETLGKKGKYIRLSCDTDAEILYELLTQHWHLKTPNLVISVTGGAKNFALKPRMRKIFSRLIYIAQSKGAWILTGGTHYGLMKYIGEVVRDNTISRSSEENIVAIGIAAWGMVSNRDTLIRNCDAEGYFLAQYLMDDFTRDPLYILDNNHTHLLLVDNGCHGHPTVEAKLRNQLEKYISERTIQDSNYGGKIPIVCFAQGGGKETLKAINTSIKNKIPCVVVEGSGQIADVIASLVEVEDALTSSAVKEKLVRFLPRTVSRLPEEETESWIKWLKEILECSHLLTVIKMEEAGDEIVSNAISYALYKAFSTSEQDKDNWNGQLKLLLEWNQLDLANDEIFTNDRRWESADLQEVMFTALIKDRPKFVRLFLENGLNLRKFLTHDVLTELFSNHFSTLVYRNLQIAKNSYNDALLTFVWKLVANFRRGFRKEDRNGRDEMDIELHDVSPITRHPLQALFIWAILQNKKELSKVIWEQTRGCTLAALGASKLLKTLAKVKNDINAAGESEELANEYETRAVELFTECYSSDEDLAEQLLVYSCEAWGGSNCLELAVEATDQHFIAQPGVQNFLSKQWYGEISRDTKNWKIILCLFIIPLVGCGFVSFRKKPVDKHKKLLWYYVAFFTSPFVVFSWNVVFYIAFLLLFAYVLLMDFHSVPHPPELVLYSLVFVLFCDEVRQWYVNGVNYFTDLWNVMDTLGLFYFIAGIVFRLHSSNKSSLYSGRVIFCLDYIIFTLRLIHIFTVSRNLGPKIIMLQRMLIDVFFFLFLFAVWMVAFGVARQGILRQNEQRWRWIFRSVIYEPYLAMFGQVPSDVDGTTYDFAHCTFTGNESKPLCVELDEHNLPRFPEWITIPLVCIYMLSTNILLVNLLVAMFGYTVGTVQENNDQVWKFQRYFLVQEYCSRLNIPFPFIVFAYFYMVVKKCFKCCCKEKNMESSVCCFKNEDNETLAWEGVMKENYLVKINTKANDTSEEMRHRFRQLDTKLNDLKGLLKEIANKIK
Description: A functional cell-based assay for the identification of TRPM8 receptor antagonists, optimised to allow high throughput screening at FLIPR^TETRA, was developed in HEK293 cells by stable pure clone selection and functional characterization with a fluorescent calcium sensitive dye.
TRPM8 was cloned into the multiple clonig site of pcDNA3 mammalian expression vector; the obtained construct pcDNA3/hTRPM8 was fully sequence verified and used for the transfection of HEK293 cell line. HEK293 cells stably transfected with TRPM8 gene were maintained in Minimum essential medium. The cells were transfected with the pcDNA3/hTRPM8 vector by electroporation and then selected with medium containing 0.8 mg/ml G418 for 10-15 days.
The following commercial compounds were used as ligands: • Activator: Cooling Agent 10 (Takasago CAS N. 87061-04-9) • Blocker: Capsazepine (SIGMA cat #D—5879)
The experimental activities were performed using FLIPR^TETRA instruments.
HEK293 cells stably transfected with TRPM8 gene were maintained in Minimum essential medium.
The TRPM8 cell line was analysed for the response to a library of compounds using a Ca^2+ mobilization-dependent fluorescence signal in 384 wells microtiter plate format. The analysis was performed using the FLIPR^TETRA (MDC) with the ICCD Camera.
The execution of the assay involved the use of three microtiter plates:
1. Assay plate, containing cells loaded with dye and prepared as follows:
Cells were seeded at 15000 c/well in Poly-D-Lysine coated 384 wells Microtiter Plates in complete medium (25 μl/well).
24 h after seeding, the cell plates were washed with Tyrode assay buffer by the Microplate Washer and 10 μL of Tyrode assay buffer was left in each well.
Cells were then loaded with 10 μL/well of the Fluo-4 NW dye solution by CyBi®-Well pipettor. Each bottle of Fluo4-NW dye (Molecular Probes cat. #F36206, component A) was re-suspended in 8 mL of Tyrode assay buffer and supplemented with 100 μL of water-soluble probenecid (MolecularProbes cat.#F36206, component B).
Dye loaded cell plates were incubated for 1 h at room temperature.
2. Compound Dilution Plate (FIG. 1), containing diluted test compounds, formulated as follows: • Column 1: wells containing Assay Buffer plus DMSO 0.5% final • Column 2: wells alternating Max Signal Control in first injection (Maximum Response: Cooling Agent 10 at EC100, 100 μM) and Min Signal Control in first injection (Assay buffer plus 0.5% DMSO final); • Columns 3-22: wells containing Assay Buffer plus 0.5% DMSO final. To these wells the compounds to be tested were added at 3× concentration. • Column 23: alternating wells of Max Signal Control in second injection (Assay buffer) and Min Signal Control in second injection (Antagonist Capsazepine IC100, 50 μM) in Assay buffer plus 0.5% DMSO final; • Column 24: wells containing Capsazepine (Antagonist) at 8 concentrations in duplicate at final concentrations of […] in Assay buffer plus 0.5% DMSO final.
3. Activator Plate (FIG. 2), containing agonist Cooling Agent 10 at EC80, formulated as follows: • Column 1: Cooling Agent 10 (Agonist) at 8 concentrations dose response in duplicate at final concentrations of […] in Assay buffer; • Columns 2-24: Cooling Agent 10 (Agonist) at EC80 (3 fold concentrated, 20 μM final) in Assay buffer.
The test was carried out according to a procedure comprising the following steps: • 1. The samples contained in the wells of the Compound Plate were added to the corresponding wells of the Assay Plate by the FLIPR^TETRA, thus resulting in the addition in Columns 3-22 of the test compounds at 3× concentration to the cells of the assay plates. No mixing was performed in the assay wells and the signal of the emitted fluorescence was recorded for 300 seconds. • 2.

[4] = molecular target: T1, human TRPM8; experiment: Selectivity analysis, calcium influx assay (Fluo-8, FLIPR TETRA), hTRPM8 in CHO cells; format: cell-based; parameters: expressed in transfected cells; host or cells: CHO
Description: The following 3 cloned human channels were evaluated in this study. • 1. Cloned hTRPM8 channels (encoded by the human TRPM8 gene, stably expressed in CHO cells), • 2. Cloned hTRPV1 channels (encoded by the human TRPV1 gene, stably expressed in HEK293 cells), • 3. Cloned hTRPV4 channels (encoded by the human TRPV4 gene, stably expressed in CHO cells). […] The ability of compound (1) to act as an antagonist of TRPM8 was evaluated with a calcium influx assay. […] Values were considered significant and highlighted in yellow if the test article mean was three or more standard deviations away from the positive control agonist mean.

[5] = Plasma Protein Binding, human; format: in vitro ADME
[6] = test system: hepatocytes; experiment: Metabolic stability hepatocytes, human; format: in vitro ADME
[7] = CHO, read-out: normalized % inhibition TRPM8

hERG, sequence (Q12809 whole entry): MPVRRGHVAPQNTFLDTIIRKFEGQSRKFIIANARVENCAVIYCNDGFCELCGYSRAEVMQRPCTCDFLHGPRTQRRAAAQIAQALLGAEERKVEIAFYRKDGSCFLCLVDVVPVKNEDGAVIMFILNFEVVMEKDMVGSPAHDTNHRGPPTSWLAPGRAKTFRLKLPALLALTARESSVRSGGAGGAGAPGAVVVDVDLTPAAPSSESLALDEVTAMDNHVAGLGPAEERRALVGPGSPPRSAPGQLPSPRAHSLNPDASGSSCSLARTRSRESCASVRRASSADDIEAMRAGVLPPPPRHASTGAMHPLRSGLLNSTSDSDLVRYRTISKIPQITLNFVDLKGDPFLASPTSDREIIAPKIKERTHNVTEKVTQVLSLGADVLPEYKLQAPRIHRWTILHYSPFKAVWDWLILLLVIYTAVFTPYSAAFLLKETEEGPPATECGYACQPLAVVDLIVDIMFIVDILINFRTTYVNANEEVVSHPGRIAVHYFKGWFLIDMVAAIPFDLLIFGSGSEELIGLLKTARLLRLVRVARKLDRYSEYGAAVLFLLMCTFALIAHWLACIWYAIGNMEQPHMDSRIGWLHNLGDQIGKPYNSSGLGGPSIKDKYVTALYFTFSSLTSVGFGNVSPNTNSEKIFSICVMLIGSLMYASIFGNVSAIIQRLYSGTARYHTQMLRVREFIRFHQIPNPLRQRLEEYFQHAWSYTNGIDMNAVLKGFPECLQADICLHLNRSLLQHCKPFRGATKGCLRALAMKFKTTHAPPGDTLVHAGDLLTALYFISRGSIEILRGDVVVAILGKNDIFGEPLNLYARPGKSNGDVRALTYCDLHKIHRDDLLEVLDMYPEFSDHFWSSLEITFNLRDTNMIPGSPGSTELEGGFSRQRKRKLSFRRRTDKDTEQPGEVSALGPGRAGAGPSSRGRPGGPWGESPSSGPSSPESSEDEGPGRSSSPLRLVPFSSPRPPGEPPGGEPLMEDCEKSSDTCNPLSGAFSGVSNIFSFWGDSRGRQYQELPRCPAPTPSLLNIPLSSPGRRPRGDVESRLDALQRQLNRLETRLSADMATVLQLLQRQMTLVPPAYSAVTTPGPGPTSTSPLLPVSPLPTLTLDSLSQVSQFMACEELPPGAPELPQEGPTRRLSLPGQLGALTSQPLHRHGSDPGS

fraction unbound at 10 μM [2]: 0.03 | IC50 [3]: < 10000 nM and 70 nM | inhibition at 0.001 µM [4, 7]: -25.2% | inhibition at 0.01 µM [4, 7]: 21.4% | inhibition at 0.1 µM [4, 7]: 95.6% | inhibition at 1 µM [4, 7]: 95.6% | inhibition at 10 µM [4, 7]: 96.4% | IC50 ([4]; read-out: IC50 (TRPM8)): 70 nM | fraction unbound at 10 μM [5]: 0.02 | Metabolic stability hepatocytes (% remaining at 120 min @1 μM) [6]: 2.6%
Compound: Cl.Clc1c(OCCNCc2ccco2)ccc2ccccc12 [Compound 1, 2-[(1-chloronaphthalen-2-yl)oxy]-N-(furan-2-ylmethyl)ethanaminium chloride]
hERG binding @10 μM [1]: No effect
